In PMC6268642, “Facile Synthesis and Herbicidal Evaluation of 4H-3,1-Benzoxazin-4-ones and 3H-Quinazolin-4-ones with 2-Phenoxymethyl Substituents” (Molecules, 2012):
Like-named read-outs stand apart in the source and are kept apart here.

Experiments:
[1] = test system: barnyard grass Echinochloa crusgalli; assay: Petri dish culture, growth inhibition of root and stalk of barnyard grass; type: in vivo; details: Echinochloa crus-galli, 120 h, 5 days; for inhibition at 1 µg/mL: 1 mg/L; for inhibition at 10 µg/mL: 10 mg/L
Protocol: (§1) The synthesized compounds were tested for the herbicidal activity on model plants including a monocotyledon (barnyard grass) and a dicotyledon (rape) by the reported Petri dish culture method. The percent inhibitory ratios against the growth of root and stalk of barnyard grass and rape at different dosage concentrations were calculated, and the compounds with appreciable inhibitory potencies are selected and shown in Table 1 and Table 2. Several features of the inhibitory activities can be derived. First, all the compounds have stronger inhibition against the growth of the dicotyledon rape than against the monocotyledon barnyard grass, showing appreciable selectivity.
(§2) The herbicidal activity was examined for the growth inhibition effect of the dicotyledon rape Brassica napus and the monocotyledon barnyard grass Echinochloa crusgalli, using the standard Petri dish test and the pre-emergence treatment procedure. […] Nine mL of the solution was added in a Petri dish of 9 cm diameter and two pieces of filter paper were placed on the dish bottom. Twenty seeds each of rape and barnyard grass were placed on the filter paper. The covered Petri dish was transferred into an artificial climate incubator (MGC-400H, Shantou Keyi Co., Ltd., China), where the conditions were controlled at temperature 23 ± 1 °C, humidity 60 ± 5%, light intensity 10 Klux, and photoperiod 12 h/day. The incubation was continued for 5 days, then the lengths of 10 roots and 10 stems for each type of plant were measured and the mean values were calculated. The percent inhibitory ratios were calculated relative to control plants exposing to distilled water instead of the compound solution.

rape Brassica napus = assay: Petri dish culture, growth inhibition of root and stalk of rape; type: in vivo; details: Brassica napus, 120 h, 5 days; for inhibition at 1 µg/mL: 1 mg/L; for inhibition at 10 µg/mL: 10 mg/L
Protocol: as §1, §2

[2] = root growth, read-out: Relative inhibition, root
[3] = stalk growth, read-out: Relative inhibition, stalk

Structure (SMILES) | inhibition at 1 µg/mL [1, 2] [%] | inhibition at 1 µg/mL [1, 3] [%] | inhibition at 10 µg/mL [1, 2] [%] | inhibition at 10 µg/mL [1, 3] [%] | inhibition at 1 µg/mL (rape Brassica napus; [2]) [%] | inhibition at 1 µg/mL (rape Brassica napus; [3]) [%] | inhibition at 10 µg/mL (rape Brassica napus; [2]) [%] | inhibition at 10 µg/mL (rape Brassica napus; [3]) [%] | melting point [°C]
O=c1oc(COc2ccc(F)cc2)nc2ccccc12 [3r, 2-((4-Fluorophenoxy)methyl)-4H-3,1-benzoxazin-4-one] | 62.6 | 42.8 | 96.8 | 57.8 | 81.4 | 55.3 | 99.6 | 87 | 112.5 to 114.6
O=c1oc(COc2ccc(F)cc2)nc2cccc(Cl)c12 [3s, 5-Chloro-2-((4-fluorophenoxy)methyl)-4H-3,1-benzoxazin-4-one] | 61.1 | 11.8 | 91 | 46.3 | 72.8 | 25.7 | 98.6 | 94.8 | 155.9 to 156.7
O=c1oc(COc2ccc(F)cc2)nc2ccc(Cl)cc12 [3t, 6-Chloro-2-((4-fluorophenoxy)methyl)-4H-3,1-benzoxazin-4-one] | 66.3 | 36.4 | 93.2 | 49.1 | 85.5 | 60 | 99.3 | 91.7 | 159.8 to 161.7
O=c1oc(COc2ccc(F)cc2)nc2cc(Cl)ccc12 [3u, 7-Chloro-2-((4-fluorophenoxy)methyl)-4H-3,1-benzoxazin-4-one] | 61.8 | -7.3 | 96.7 | 39 | 92.7 | 65.2 | 99 | 92.2 | 123.6 to 124.9
Cc1ccc2nc(COc3ccc(F)cc3)oc(=O)c2c1 [3v, 2-((4-Fluorophenoxy)methyl)-6-methyl-4H-3,1-benzoxazin-4-one] | 69.9 | 24.1 | 92.2 | 31.7 | 87.7 | 61 | 99.3 | 93.7 | 130.8 to 131.9
COc1cc2nc(COc3ccc(F)cc3)oc(=O)c2cc1OC [3w, 2-((4-Fluorophenoxy)methyl)-6,7-dimethoxy-4H-3,1-benzoxazin-4-one] | 37.5 | 12.8 | 64.5 | 16.4 | 35.2 | 12.8 | 79.7 | 41.4 | 144.7 to 146
Nn1c(COc2ccc(Cl)cc2)nc2cccc(Cl)c2c1=O [4a, 3-Amino-5-chloro-2-((4-chlorophenoxy)methyl)-3H-quinazolin-4-one] | 57.9 | 8.9 | 43.1 | 14.9 | 28.5 | 13.2 | 41.5 | -5.9 | 191.8 to 193.3
Nn1c(COc2ccc(Cl)cc2)nc2ccc(Cl)cc2c1=O [4b, 3-Amino-6-chloro-2-((4-chlorophenoxy)methyl)-3H-quinazolin-4-one] | 33.2 | 20.9 | 9.9 | 11.9 | 27.7 | 14.7 | 46.8 | 13.2 | 178.1 to 179.4
Nn1c(COc2ccc(Cl)cc2)nc2cc(Cl)ccc2c1=O [4c, 3-Amino-7-chloro-2-((4-chlorophenoxy)methyl)-3H-quinazolin-4-one] | 10.4 | 1.4 | 42.1 | 17.9 | 27.7 | -9.3 | 69.7 | 41.6 | 129.5 to 131.6
Cc1ccc2nc(COc3ccc(Cl)cc3)n(N)c(=O)c2c1 [4d, 3-Amino-2-((4-chlorophenoxy)methyl)-6-methyl-3H-quinazolin-4-one] | 16.3 | 11.9 | 35.6 | 7.4 | 26.4 | -14.7 | 31.3 | -3.4 | 177.3 to 178.6
